According to PMC12123601, “Light-Induced, Lysine-Targeting Irreversible Covalent Inhibition of the Human Oxygen Sensing Hydroxylase Factor Inhibiting HIF (FIH)” (Journal of the American Chemical Society, 2025):

Tests used:
[1] = target: FIH (Homo sapiens, UniProt Q9NWT6); assay: Intact protein mass analysis of FIH treated with compound; format: binding; conditions: FIH 5 μM, compound 50 μM
Method: 3 (A) Intact protein mass analysis of FIH (5 μM) and FIH (5 μM) treated with NBA-ZG-2291 (50 μM) without irradiation. (B) Crystal structure view of FIH in complex with NBA-ZG-2291 without irradiation. (C) Superimposition of the crystal structure FIH in complex with NBA-ZG-2291 (green) (PDB ID: 9I4H) and that in complex with ZG-2291 (pink) (PDB ID: 8II0 ). (D) Intact protein mass analysis of FIH (5 μM) and FIH (5 μM) treated with NBA-ZG-2291 (50 μM) followed by 30 min of irradiation (365 nm, 16 W). (E) Predicted covalent binding mode of NBA-ZG-2291 with FIH.
Subsequently, we verified the covalent reaction of NBA-ZG-2291 and FIH with irradiation in solution using, intact protein mass analyzes.
3.4 Intact protein mass spectrometry
Purified FIH (5 μM final) was incubated with Lys-1 at 50 μM in 50 mM Tris pH 7.5, 50 μM MnCl2 in a total volume of 100 μL.
All experiments were incubated at 25 ℃ for 1 h, then with or without irradiation at 365 nm for 30 min. […]
The process of customizing non-standard residues (NBA-ZG-2291 modified Lys106) in the amber14sb force field involved the following steps: First, the molecular structure of NBA-ZG-2291 was obtained and its topology was generated. […] The molecular charges were then calculated using the RESP method, and the topology file was updated with these charge values. […]

[2] = tested on: HIF-1α and HIF-2α; assay: Western blotting of HIF-1α and HIF-2α protein levels in Hep3B cells; format: cell-based
Method: To investigate potential cellular target engagement of NBA-ZG-2291 with FIH, we performed a time-dependent cellular thermal shift assay (CETSA) using Hep3B cells. The results imply that, after 30 min of light activation (365 nm, 16 W), NBA-ZG-2291 effectively stabilizes FIH with a ΔT m of about 9 °C after incubation for 12–48 h (Figure A), indicating sustained engagement with FIH. […] We also performed Western blotting to examine the protein levels of both HIF-1α and HIF-2α in control and NBA-ZG-2291-treated Hep3B cells.

FIH, sequence (Q9NWT6 whole entry): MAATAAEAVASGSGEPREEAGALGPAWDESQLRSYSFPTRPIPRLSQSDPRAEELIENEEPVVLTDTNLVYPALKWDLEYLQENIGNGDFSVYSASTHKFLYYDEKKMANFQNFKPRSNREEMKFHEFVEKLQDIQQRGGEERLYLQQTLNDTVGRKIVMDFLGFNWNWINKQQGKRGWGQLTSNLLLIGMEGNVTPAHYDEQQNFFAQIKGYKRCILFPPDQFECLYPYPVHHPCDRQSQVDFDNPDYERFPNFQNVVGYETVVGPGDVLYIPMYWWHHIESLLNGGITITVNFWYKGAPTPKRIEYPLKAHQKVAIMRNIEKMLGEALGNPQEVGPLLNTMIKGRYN

O=C(O)CNC(=O)c1ncc(-c2cc(-c3ccc(CO)c([N+](=O)[O-])c3)no2)cc1O [NBA-ZG-2291] was tested, and the “Covalent adduct with FIH by intact protein MS” value ([1]; 30 min light activation (365 nm, 16 W)) was “a new peak with the anticipated mass shift corresponding to covalent reaction was detected”, the “Covalent adduct with FIH by intact protein MS” value ([1]; absence of irradiation) was “failed to detect the covalent adducts” and the “Protein levels of HIF-1α and HIF-2α” value [2] was “did not significantly alter the levels of either HIF-1α or HIF-2α”.
